molecular target: recombinant mTOR (Homo sapiens (Human), UniProt P42345); assay: mTOR kinase assay (33P incorporation into 4EBP1); assay type: biochemical; details: compound at 10 μM, 10 μM ATP
In short: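 Recombinant human mTOR (50 ng) phosphorylated His-tagged 4EBP1 (300 ng) with 10 μM ATP plus [γ-33P]-ATP in HEPES pH 7.5, MnCl2, EGTA and DTT for 30 min at 30° C. Labelled 4EBP1 was filter-captured and counted. IC50 was derived from eight-point duplicate dilution series.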

Sequence of recombinant mTOR (P42345 1360-2549): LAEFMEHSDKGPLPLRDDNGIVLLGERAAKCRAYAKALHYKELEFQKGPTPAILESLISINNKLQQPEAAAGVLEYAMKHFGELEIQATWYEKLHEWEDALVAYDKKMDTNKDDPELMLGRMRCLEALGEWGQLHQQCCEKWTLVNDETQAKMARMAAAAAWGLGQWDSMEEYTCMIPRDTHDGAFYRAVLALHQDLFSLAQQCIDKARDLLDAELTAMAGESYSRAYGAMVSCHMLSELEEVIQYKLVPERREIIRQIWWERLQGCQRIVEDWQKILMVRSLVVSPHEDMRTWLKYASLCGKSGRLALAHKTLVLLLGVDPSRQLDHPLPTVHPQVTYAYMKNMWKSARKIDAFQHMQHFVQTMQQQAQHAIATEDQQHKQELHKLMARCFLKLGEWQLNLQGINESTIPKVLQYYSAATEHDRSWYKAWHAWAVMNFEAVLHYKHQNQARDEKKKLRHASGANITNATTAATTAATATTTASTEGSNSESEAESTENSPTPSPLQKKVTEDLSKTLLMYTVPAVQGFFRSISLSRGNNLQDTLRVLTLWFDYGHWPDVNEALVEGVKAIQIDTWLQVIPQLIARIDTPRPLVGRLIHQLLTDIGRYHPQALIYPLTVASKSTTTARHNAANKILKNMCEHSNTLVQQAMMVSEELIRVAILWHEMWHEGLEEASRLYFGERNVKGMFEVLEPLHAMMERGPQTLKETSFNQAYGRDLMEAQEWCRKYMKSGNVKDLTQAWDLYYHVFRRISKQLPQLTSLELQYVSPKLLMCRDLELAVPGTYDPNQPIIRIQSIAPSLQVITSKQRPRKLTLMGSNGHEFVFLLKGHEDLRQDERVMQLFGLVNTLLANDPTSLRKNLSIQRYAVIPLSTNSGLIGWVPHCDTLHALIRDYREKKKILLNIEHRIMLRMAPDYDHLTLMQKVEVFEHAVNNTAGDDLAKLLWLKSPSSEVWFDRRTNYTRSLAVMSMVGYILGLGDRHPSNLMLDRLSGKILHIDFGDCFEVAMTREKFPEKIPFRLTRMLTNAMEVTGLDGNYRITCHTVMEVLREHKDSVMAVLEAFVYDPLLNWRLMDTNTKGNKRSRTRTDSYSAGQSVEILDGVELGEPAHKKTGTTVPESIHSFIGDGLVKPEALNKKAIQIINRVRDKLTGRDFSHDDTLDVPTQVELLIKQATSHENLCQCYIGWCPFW

Row | Compound | inhibition at 10 µM
1 | CSc1c(OCCN(C)C)nc(-c2cccc(O)c2)nc1N1CCOCC1 [MTR-0043, 3-[4-(2-Dimethylamino-ethoxy)-5-methylsulfanyl-6-morpholin-4-yl-pyrimidin-2-yl]-phenol] | 96%
2 | CSc1c(Cl)nc(-c2ccc(NC(=O)Nc3ccccc3)cc2)nc1N1CCOCC1 [MTR-0091, 1-[4-(4-Chloro-5-methylsulfanyl-6-morpholin-4-yl-pyrimidin-2-yl)-phenyl]-3-phenyl-urea] | 92%
3 | CCOC(=O)c1nc(-c2ccc(NC(=O)Nc3cccc(F)c3)cc2)nc(N2CCOCC2)c1OCC [MTR-0147, 5-Ethoxy-2-{4-[3-(3-fluoro-phenyl)-ureido]-phenyl}-6-morpholin-4-yl-pyrimidine-4-carboxylic acid ethyl ester] | 95%

molecular target: PI3K (p110α/p85α) (Homo sapiens (Human), UniProt P42336); assay: PI3K HTRF enzyme assay, p110α/p85α; assay type: biochemical; details: read-out: % inhibition @ 500 nM p110α; compound at 500 nM, 10 μM ATP
Procedure: Recombinant PI3K (p110α/p85α) and PI3K (p110β/p85α) were from Millipore. […] Briefly, the compounds of interest dissolved in 100% DMSO were dispensed in all wells, following which the mixture of PIP2 and enzyme was added. PI3K (p110α/p85α) and PI3K (p110β/p85α) enzyme reactions were initiated in the presence of 10 μM and 100 μM ATP, respectively, and incubated for 30 min at room temperature. STOP solution prepared 2 hours prior to use was added to stop reactions, and mixed well. Detection solution prepared 2 hours prior to use was added, and incubated at room temperature for 17 hours in the dark. […] HTRF ration was calculated as follows: […]

Sequence of PI3K (p110α/p85α) (P42336 whole entry, species assumed): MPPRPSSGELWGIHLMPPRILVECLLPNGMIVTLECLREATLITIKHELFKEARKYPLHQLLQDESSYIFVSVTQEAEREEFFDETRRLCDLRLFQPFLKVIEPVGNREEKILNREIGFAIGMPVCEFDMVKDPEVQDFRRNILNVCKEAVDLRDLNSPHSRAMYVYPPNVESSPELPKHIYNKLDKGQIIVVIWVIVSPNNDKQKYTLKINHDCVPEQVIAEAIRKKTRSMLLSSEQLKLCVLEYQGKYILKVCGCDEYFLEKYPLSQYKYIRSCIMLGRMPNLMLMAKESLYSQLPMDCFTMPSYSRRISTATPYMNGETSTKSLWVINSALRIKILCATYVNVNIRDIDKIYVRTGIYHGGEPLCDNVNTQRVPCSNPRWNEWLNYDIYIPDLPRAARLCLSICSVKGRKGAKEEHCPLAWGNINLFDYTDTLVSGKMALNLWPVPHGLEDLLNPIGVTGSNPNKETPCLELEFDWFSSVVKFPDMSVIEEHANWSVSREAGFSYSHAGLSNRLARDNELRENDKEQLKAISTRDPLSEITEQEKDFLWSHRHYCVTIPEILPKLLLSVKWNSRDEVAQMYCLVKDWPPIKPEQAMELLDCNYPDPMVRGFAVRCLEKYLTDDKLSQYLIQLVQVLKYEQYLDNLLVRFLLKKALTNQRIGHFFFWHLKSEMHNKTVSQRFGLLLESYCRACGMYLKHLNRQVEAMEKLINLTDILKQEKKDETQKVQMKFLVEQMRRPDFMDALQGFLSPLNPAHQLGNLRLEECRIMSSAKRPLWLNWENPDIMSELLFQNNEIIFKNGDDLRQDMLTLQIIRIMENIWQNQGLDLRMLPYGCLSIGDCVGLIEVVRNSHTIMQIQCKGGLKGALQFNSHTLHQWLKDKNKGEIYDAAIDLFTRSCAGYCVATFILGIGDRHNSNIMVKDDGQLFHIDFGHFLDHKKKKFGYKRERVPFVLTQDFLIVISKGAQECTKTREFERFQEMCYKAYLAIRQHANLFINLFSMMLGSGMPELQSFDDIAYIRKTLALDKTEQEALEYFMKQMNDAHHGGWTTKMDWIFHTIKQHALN
Sequence of PI3K (p110α/p85α) (P27986 whole entry partner, species assumed): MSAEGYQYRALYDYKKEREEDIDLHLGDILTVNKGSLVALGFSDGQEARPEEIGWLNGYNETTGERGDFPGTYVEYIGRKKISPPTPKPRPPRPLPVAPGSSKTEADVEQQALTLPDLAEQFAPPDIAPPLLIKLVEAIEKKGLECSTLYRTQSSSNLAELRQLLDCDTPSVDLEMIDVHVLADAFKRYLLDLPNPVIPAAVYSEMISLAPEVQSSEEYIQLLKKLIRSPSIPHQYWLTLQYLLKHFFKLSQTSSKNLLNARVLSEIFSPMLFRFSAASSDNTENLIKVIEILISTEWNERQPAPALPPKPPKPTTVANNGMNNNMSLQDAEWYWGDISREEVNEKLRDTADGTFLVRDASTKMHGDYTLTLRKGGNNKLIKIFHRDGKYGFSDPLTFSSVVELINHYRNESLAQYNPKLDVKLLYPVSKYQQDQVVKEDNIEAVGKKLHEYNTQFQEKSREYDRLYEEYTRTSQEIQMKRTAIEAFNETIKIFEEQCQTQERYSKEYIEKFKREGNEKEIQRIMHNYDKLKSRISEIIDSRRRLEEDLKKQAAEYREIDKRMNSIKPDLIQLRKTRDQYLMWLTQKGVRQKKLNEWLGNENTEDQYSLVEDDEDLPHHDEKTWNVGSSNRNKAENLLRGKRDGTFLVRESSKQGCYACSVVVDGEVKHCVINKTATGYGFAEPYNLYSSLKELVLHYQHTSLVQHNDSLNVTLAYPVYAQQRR

Row | Compound | inhibition at 0.5 µM
4 | CSc1c(OCCN(C)C)nc(-c2cccc(O)c2)nc1N1CCOCC1 [MTR-0043, 3-[4-(2-Dimethylamino-ethoxy)-5-methylsulfanyl-6-morpholin-4-yl-pyrimidin-2-yl]-phenol] | 85.4%
5 | CSc1c(Cl)nc(-c2ccc(NC(=O)Nc3ccccc3)cc2)nc1N1CCOCC1 [MTR-0091, 1-[4-(4-Chloro-5-methylsulfanyl-6-morpholin-4-yl-pyrimidin-2-yl)-phenyl]-3-phenyl-urea] | 60.9%
6 | CCOC(=O)c1nc(-c2ccc(NC(=O)Nc3cccc(F)c3)cc2)nc(N2CCOCC2)c1OCC [MTR-0147, 5-Ethoxy-2-{4-[3-(3-fluoro-phenyl)-ureido]-phenyl}-6-morpholin-4-yl-pyrimidine-4-carboxylic acid ethyl ester] | 52.4%
7 | CSc1cnc(-c2ccc(NC(=O)Nc3ccc(NC(C)=O)cc3)cc2)nc1N1CCOCC1 [MTR-0380, N-(4-{3-[4-(5-Methylsulfanyl-4-morpholin-4-yl-pyrimidin-2-yl)-phenyl]-ureido}-phenyl)-acetamide] | 101%
8 | COc1cnc(-c2ccc(NC(=O)Nc3ccc(C(=O)N4CCOCC4)cc3)cc2)nc1N1CCOCC1 [MTR-0382, 1-[4-(5-Methoxy-4-morpholin-4-yl-pyrimidin-2-yl)-phenyl]-3-[4-(morpholine-4-carbonyl)-phenyl]urea] | 95.9%
9 | COc1cnc(-c2ccc(NC(=O)Nc3ccc(C(N)=O)cc3)c(F)c2)nc1N1CCOCC1 [MTR-0385, 4-{3-[2-Fluoro-4-(5-methoxy-4-morpholin-4-yl-pyrimidin-2-yl)-phenyl]-ureido}-benzamide] | 64%
10 | CSc1c(Cl)nc(-c2ccc(NC(=O)Nc3ccc(S(C)(=O)=O)cc3)cc2)nc1N1CCOCC1 [MTR-0387, 1-[4-(4-Chloro-5-methylsulfanyl-6-morpholin-4-yl-pyrimidin-2-yl)-phenyl]-3-(4-methanesulfonyl-phenyl)-urea] | 83.1%
11 | CSc1c(-c2ccncc2)nc(-c2ccc(NC(=O)Nc3ccc(N4CCOCC4=O)cc3)cc2)nc1N1CCOCC1 [MTR-0391, 1-[4-(5-Methylsulfanyl-4-morpholin-4-yl-6-pyridin-4-yl-pyrimidin-2-yl)-phenyl]-3-[4-(3-oxo-morpholin-4-yl)-phenyl]-urea] | 51.7%
12 | CSc1c(-c2ccncc2)nc(-c2ccc(NC(=O)Nc3ccc(C(N)=O)cc3)cc2)nc1N1CCOCC1 [MTR-0392, 4-{3-[4-(5-Methylsulfanyl-4-morpholin-4-yl-6-pyridin-4-yl-pyrimidin-2-yl)-phenyl]-ureido}-benzamide] | 46.6%
13 | CCOc1cnc(-c2ccc(NC(=O)Nc3ccc(NS(C)(=O)=O)cc3)cc2)nc1N1CCOCC1 [MTR-0394, N-(4-{3-[4-(5-Ethoxy-4-morpholin-4-yl-pyrimidin-2-yl)-phenyl]-ureido}-phenyl)-methanesulfonamide] | 70.5%
14 | C[S+]([O-])c1cnc(-c2ccc(NC(=O)Nc3ccc(N4CCOCC4=O)cc3)cc2)nc1N1CCOCC1 (centres unmarked) [MTR-0401, 1-[4-(5-Methanesulfinyl-4-morpholin-4-yl-pyrimidin-2-yl)-phenyl]-3-[4-(3-oxo-morpholin-4-yl)-phenyl]-urea] | 41.7%
15 | CSc1cnc(-c2ccc(NC(=O)Nc3ccc(S(C)(=O)=O)cc3)cc2)nc1N1CCOCC1 [MTR-0404, 1-(4-Methanesulfonyl-phenyl)-3-[4-(5-methylsulfanyl-4-morpholin-4-yl-pyrimidin-2-yl)-phenyl]-urea] | 66.9%
16 | COc1cnc(-c2ccc(NC(=O)Nc3ccc(N4CCOCC4=O)cc3)c(F)c2)nc1N1CCOCC1 [MTR-0405, 1-[2-Fluoro-4-(5-methoxy-4-morpholin-4-yl-pyrimidin-2-yl)-phenyl]-3-[4-(3-oxo-morpholin-4-yl)-phenyl]-urea] | 52.5%
17 | COc1cnc(-c2ccc(NC(=O)Nc3ccc(N4CCOCC4=O)cc3)cc2F)nc1N1CCOCC1 [MTR-0406, 1-[3-Fluoro-4-(5-methoxy-4-morpholin-4-yl-pyrimidin-2-yl)-phenyl]-3-[4-(3-oxo-morpholin-4-yl)-phenyl]-urea] | 78.4%
18 | COc1cnc(-c2ccc(NC(=O)Nc3ccc(C(N)=O)cc3)cc2F)nc1N1CCOCC1 [MTR-0407, 4-{3-[3-Fluoro-4-(5-methoxy-4-morpholin-4-yl-pyrimidin-2-yl)-phenyl]-ureido}-benzamide] | 63.4%
19 | CSc1c(Cl)nc(-c2ccc(NC(=O)Nc3ccc(S(N)(=O)=O)cc3)cc2F)nc1N1CCOCC1 [MTR-0412, 4-{3-[4-(4-Chloro-5-methylsulfanyl-6-morpholin-4-yl-pyrimidin-2-yl)-3-fluoro-phenyl]-ureido}-benzenesulfonamide] | 82.7%

Row | Compound | inhibition at 0.5 µM
20 | CCOc1cnc(-c2ccc(NC(=O)Nc3ccc(N4CCN(S(C)(=O)=O)CC4)cc3)cc2)nc1N1CCOCC1 [MTR-0420, 1-[4-(5-Ethoxy-4-morpholin-4-yl-pyrimidin-2-yl)-phenyl]-3-[4-(4-methanesulfonyl-piperazin-1-yl)-phenyl]-urea] | 58.6%
21 | CCOc1cnc(-c2ccc(NC(=O)Nc3ccc(C(=O)N4CCOCC4)cc3)cc2)nc1N1CCOCC1 [MTR-0421, 1-[4-(5-Ethoxy-4-morpholin-4-yl-pyrimidin-2-yl)-phenyl]-3-[4-(morpholine-4-carbonyl)-phenyl]-urea] | 98.7%
22 | CCOc1cnc(-c2ccc(NC(=O)Nc3ccc(S(C)(=O)=O)cc3)cc2)nc1N1CCOCC1 [MTR-0424, 1-[4-(5-Ethoxy-4-morpholin-4-yl-pyrimidin-2-yl)-phenyl]-3-(4-methanesulfonyl-phenyl)-urea] | 71.5%
23 | COc1cnc(-c2ccc(NC(=O)Nc3cccc(NC(C)=O)c3)cc2)nc1N1CCOCC1 [MTR-0426, N-(3-{3-[4-(5-Methoxy-4-morpholin-4-yl-pyrimidin-2-yl)-phenyl]-ureido}-phenyl)-acetamide] | 58.4%
24 | COc1cnc(-c2ccc(NC(=O)Nc3ccc(C(=O)NCCCN(C)C)cc3)cc2)nc1N1CCOCC1 [MTR-0427, N-(3-Dimethylamino-propyl)-4-{3-[4-(5-methoxy-4-morpholin-4-yl-pyrimidin-2-yl)-phenyl]-ureido}-benzamide] | 71.1%
25 | CSc1c(Cl)nc(-c2ccc(NC(=O)Nc3ccc(C(=O)N4CCC(N(C)C)CC4)cc3)cc2)nc1N1CCOCC1 [MTR-0436, 1-[4-(4-Chloro-5-methylsulfanyl-6-morpholin-4-yl-pyrimidin-2-yl)-phenyl]-3-[4-(4-dimethylamino-piperidine-1-carbonyl)-phenyl]-urea] | 71.5%
26 | CCOc1cnc(-c2ccc(NC(=O)Nc3ccc(NC(C)=O)nc3)cc2)nc1N1CCOCC1 [MTR-0442, N-(5-{3-[4-(5-Ethoxy-4-morpholin-4-yl-pyrimidin-2-yl)-phenyl]-ureido}-pyridin-2-yl)-acetamide] | 79.1%
27 | CCOc1cnc(-c2ccc(NC(=O)Nc3ccncc3)cc2)nc1N1CCOCC1 [MTR-0446, 1-[4-(5-Ethoxy-4-morpholin-4-yl-pyrimidin-2-yl)-phenyl]-3-pyridin-4-yl-urea] | 66.3%
28 | COc1cnc(-c2ccc(NC(=O)Nc3ccc(NS(C)(=O)=O)cc3)cc2)nc1N1CCOCC1 [MTR-0449, N-(4-{3-[4-(5-Methoxy-4-morpholin-4-yl-pyrimidin-2-yl)-phenyl]-ureido}-phenyl)-methanesulfonamide] | 75.4%
29 | O=C(Nc1ccc(C(=O)N2CCOCC2)cc1)Nc1ccc(-c2ncc(OCCN3CCOCC3)c(N3CCOCC3)n2)cc1 [MTR-0454, 1-[4-(Morpholine-4-carbonyl)-phenyl]-3-{4-[4-morpholin-4-yl-5-(2-morpholin-4-yl-ethoxy)-pyrimidin-2-yl]-phenyl}-urea] | 74.4%
30 | O=C(Nc1ccc(-c2ncc(OCCN3CCOCC3)c(N3CCOCC3)n2)cc1)Nc1ccc(N2CCOCC2=O)cc1 [MTR-0455, 1-{4-[4-Morpholin-4-yl-5-(2-morpholin-4-yl-ethoxy)-pyrimidin-2-yl]-phenyl}-3-[4-(3-oxo-morpholin-4-yl)-phenyl]-urea] | 48.9%
31 | NC(=O)c1ccc(NC(=O)Nc2ccc(-c3ncc(OCCN4CCOCC4)c(N4CCOCC4)n3)cc2)cc1 [MTR-0456, 4-(3-{4-[4-Morpholin-4-yl-5-(2-morpholin-4-yl-ethoxy)-pyrimidin-2-yl]-phenyl}-ureido)-benzamide] | 52.6%
32 | CSc1c(-c2cccnc2)nc(-c2ccc(NC(=O)Nc3ccc(N4CCOCC4=O)cc3)cc2)nc1N1CCOCC1 [MTR-0457, 1-[4-(5-Methylsulfanyl-4-morpholin-4-yl-6-pyridin-3-yl-pyrimidin-2-yl)-phenyl]-3-[4-(3-oxo-morpholin-4-yl)-phenyl]-urea] | 47.4%
33 | CSc1cnc(-c2ccc(NC(=O)Nc3ccc(C(=O)N4CCOCC4)cc3)cc2)nc1N1CCOCC1 [MTR-0461, 1-[4-(5-Methylsulfanyl-4-morpholin-4-yl-pyrimidin-2-yl)-phenyl]-3-[4-(morpholine-4-carbonyl)-phenyl]-urea] | 93.4%
34 | CSc1cnc(-c2ccc(NC(=O)Nc3ccncc3)cc2)nc1N1CCOCC1 [MTR-0462, 1-[4-(5-Methylsulfanyl-4-morpholin-4-yl-pyrimidin-2-yl)-phenyl]-3-pyridin-4-yl-urea] | 67.9%
35 | CSc1c(Cl)nc(-c2ccc(NC(=O)Nc3ccncc3)cc2)nc1N1CCOCC1 [MTR-0469, 1-[4-(4-Chloro-5-methylsulfanyl-6-morpholin-4-yl-pyrimidin-2-yl)-phenyl]-3-pyridin-4-yl-urea] | 81.7%
